Measured values: patent US4092431A, “Pharmaceutical composition and method of the use thereof” (Chugai Seiyaku Kabushiki Kaisha, priority 1977, dated 1978)

What was measured:
pylorus ligature ulcer = test: Protective action on pylorus ligature ulcer formation; type: in vivo, Sprague-Dawley strain male rats; conditions: for Death Rate / Perforating Ulcers / Ulcer Index (mean value ± standard deviation) / Percent Inhibition: in the duodenum; for Ulcer Index (mean value ± standard deviation): scale 0 to 5, control 4.0 ± 1.3; for Percent Inhibition: ulcer index
Procedure: The pylorus of Sprague-Dawley strain male rats weighing 150-200 g that had abstained from food, but not water for 48 hours was ligatured under ether anethsia. Each rat was allowed to stand individually in a cage for 16 hours without food and water. At the end of this term, the rats were sacrificed by an overdose of diethyl ether. The stomach was taken out of each animal and the gastric mucosa was obserbed by the use of a dissecting microscope.
Ulcers observed in the gastric mucosa were evaluated on a scale of from 0 to 5 defined as follows.
0: No lesion was observed.
1: Hemorrhage and/or erosion were observed.
2: One to five small ulcers less than 3 mm in diameter were observed.
3: Six or more small ulcers and/or a large ulcer more than 3 mm in diameter were observed.
4: Two or more large ulcers were observed.
5: At least one perforating ulcer was observed.
A test compound was administered as an aqueous solution in an equivalent molar of hydrochloric acid in the duodenum immediately after the pylorus ligature.

stress-induced ulcer = test: Inhibitory action on stress-induced ulcer formation; type: in vivo, Sprague-Dawley strain male rats; conditions: oral; for dose dependence of inhibiting action on ulcer formation: 30 mg/kg and above; for Ulcer Index (mean value ± standard deviation): Ulcer Index = a + b/10, control 6.1 ± 2.3; for Number of Ulcers/Stomach, 3 mm or larger: control 1.3; for Number of Ulcers/Stomach, up to 3 mm: control 45.6; for Percent Inhibition: ulcer index
Procedure: Sprague-Dawley strain male rats weighing 200-250 g were deprived of food for 24 hours, and then laid down on their backs on a screen and fixed by fastening their limbs with a strand. The fixed rats were submerged in water bath to the depth of ensiform process with their hind legs dipped first. Sixteen hours after the submerge, the rats were brought out from the bath and their stomachs were taken out. After light fixation with a 1% formalin aqueous solution, the stomach of each animal was cut open along their greater curvature and gastric mucosa was observed through a dissecting microscope. The ulcer was evaluated on an ulcer index calculated from the following equation: […]
wherein a is the number of big ulcers more than 3 mm in diameter and b is the number of small ulcers up to 3 mm in diameter.
A test compound was orally administered as a suspension in a 1% gum arabic aqueous solution, 10 minutes before exposure to stress.

Acute toxicity in mice = conditions: mouse, in vivo, po
acetic acid ulcer = test: Action on the healing of acetic acid ulcers; type: in vivo, Sprague-Dawley strain male rats; conditions: oral; for Percent healing Rate / Ulcer Index (mean number ± standard deviation), product of major and minor axis: once a day for 15 days; for Ulcer Index (mean number ± standard deviation), product of major and minor axis: control 12.5 ± 6.0
Procedure: Sprague-Dawley strain male rate (8 weeks old) were etherized and their abdominal parts were cut open. A 20% acetic acid aqueous solution (0.05 ml) was injected into subserosal layer in the glandular part of stomach of each rat and the incisions were sutured.
From the fourth day after the operation, each rat was orally administered with 1-(3'-dimethylaminopropoxy)-2,4-bis(3"-methylbenzamido)-benzene in a dose of 10 mg/kg or 40 mg/kg. body weight as an aqueous solution in an equivalent molar of hydrochloric acid once a day for 15 days. On the day after the last administration, the rats were sacrificed by an overdose of diethyl ether and the stomach of each of the rats was taken out. After light fixation of the stomach with a 1% formalin solution, it was cut open along the greater curvature and the gastric mucosa was observed through a dissecting microscope. The ulcer was evaluated as the product (mm^2) of the major axis and the minor axis of the ulcer.

SMILES	Death Rate (pylorus ligature ulcer; 50 mg/kg) [%]	Perforating Ulcers (pylorus ligature ulcer; 50 mg/kg) [%]	Ulcer Index (mean value ± standard deviation) (pylorus ligature ulcer; 50 mg/kg)	Percent Inhibition (pylorus ligature ulcer; 50 mg/kg) [%]	inhibition of death of rats and formation of perforating ulcers (pylorus ligature ulcer; 100 mg/kg or 200 mg/kg)	prevention of formation of gastric ulcers (pylorus ligature ulcer; 100 mg/kg or 200 mg/kg)	Death Rate (pylorus ligature ulcer; 100 mg/kg) [%]	Perforating Ulcers (pylorus ligature ulcer; 100 mg/kg) [%]	Ulcer Index (mean value ± standard deviation) (pylorus ligature ulcer; 100 mg/kg)	Percent Inhibition (pylorus ligature ulcer; 100 mg/kg) [%]	Death Rate (pylorus ligature ulcer; 200 mg/kg) [%]	Perforating Ulcers (pylorus ligature ulcer; 200 mg/kg) [%]	Ulcer Index (mean value ± standard deviation) (pylorus ligature ulcer; 200 mg/kg)	Percent Inhibition (pylorus ligature ulcer; 200 mg/kg) [%]	dose dependence of inhibiting action on ulcer formation (stress-induced ulcer)	inhibition of the formation of ulcer (stress-induced ulcer; 30 mg/kg body weight)	Ulcer Index (mean value ± standard deviation) (stress-induced ulcer; 100 mg/kg)	Number of Ulcers/Stomach, 3 mm or larger (stress-induced ulcer; 100 mg/kg)	Number of Ulcers/Stomach, up to 3 mm (stress-induced ulcer; 100 mg/kg)	Percent Inhibition (stress-induced ulcer; 100 mg/kg) [%]	further results
Cc1ccccc1C(=O)Nc1ccc(OCCCN(C)C)c(NC(=O)c2ccccc2C)c1 [1-(3'-dimethylaminopropoxy)-2,4-bis(2"-methylbenzamido)-benzene]	20	20	3.2 ± 1.3	20	completely inhibited the death of rats and the formation of perforating ulcers	prevented the formation of gastric ulcers on a statistically significant level	0	0	2.6 ± 0.5	35	0	0	0	100	inhibiting action increases as the dose level heightens	50-60%	0.4 ± 0.5	0	3.8	93	Ulcer Index (mean value ± standard deviation) (stress-induced ulcer; 30 mg/kg): 2.8 ± 0.8; Number of Ulcers/Stomach, 3 mm or larger (stress-induced ulcer; 30 mg/kg): 0.6; Number of Ulcers/Stomach, up to 3 mm (stress-induced ulcer; 30 mg/kg): 23.4; Percent Inhibition (stress-induced ulcer; 30 mg/kg): 54%; Ulcer Index (mean value ± standard deviation) (stress-induced ulcer; 45 mg/kg): 2.0 ± 0.6; Number of Ulcers/Stomach, 3 mm or larger (stress-induced ulcer; 45 mg/kg): 0.2; Number of Ulcers/Stomach, up to 3 mm (stress-induced ulcer; 45 mg/kg): 16.8; Percent Inhibition (stress-induced ulcer; 45 mg/kg): 67%; Ulcer Index (mean value ± standard deviation) (stress-induced ulcer; 67 mg/kg): 1.0 ± 0.9; Number of Ulcers/Stomach, 3 mm or larger (stress-induced ulcer; 67 mg/kg): 0.2; Number of Ulcers/Stomach, up to 3 mm (stress-induced ulcer; 67 mg/kg): 8.8; Percent Inhibition (stress-induced ulcer; 67 mg/kg): 84%
Cc1ccccc1C(=O)Nc1ccc(C(=O)NCCCN(C)C)c(NC(=O)c2ccccc2C)c1 [1-[N-(3'-dimethylaminopropyl)-carbamoyl]-2,4-bis(2"-methylbenzamido)-benzene]	–	–	–	–	–	–	–	–	–	–	0	0	1.4 ± 1.4	65	–	–	3.0 ± 1.0	0.8	23.4	51	inhibition of death of rats and formation of perforating ulcers (pylorus ligature ulcer; 200 mg/kg): completely inhibited the death of rats and the formation of perforating ulcers; prevention of formation of gastric ulcers (pylorus ligature ulcer; 200 mg/kg): prevented the formation of gastric ulcers on a statistically significant level; inhibition of the formation of ulcer (stress-induced ulcer; 100 mg/kg body weight): 50-60%; LD50 (Acute toxicity in mice): > 11000 mg/kg
Cc1cccc(C(=O)Nc2ccc(OCCCN(C)C)c(NC(=O)c3cccc(C)c3)c2)c1 [1-(3'-dimethylaminopropoxy)-2,4-bis(3"-methylbenzamido)-benzene]	33	50	4.0 ± 1.1	0	completely inhibited the death of rats and the formation of perforating ulcers	prevented the formation of gastric ulcers on a statistically significant level	0	0	2.0 ± 1.4	50	0	0	1.0 ± 1.1	75	inhibiting action increases as the dose level heightens	50-60%	2.0 ± 2.1	0.8	10.6	67	Ulcer Index (mean value ± standard deviation) (stress-induced ulcer; 30 mg/kg): 2.6 ± 2.1; Number of Ulcers/Stomach, 3 mm or larger (stress-induced ulcer; 30 mg/kg): 0.5; Number of Ulcers/Stomach, up to 3 mm (stress-induced ulcer; 30 mg/kg): 21.4; Percent Inhibition (stress-induced ulcer; 30 mg/kg): 57%; Ulcer Index (mean value ± standard deviation) (stress-induced ulcer; 45 mg/kg): 2.0 ± 1.7; Number of Ulcers/Stomach, 3 mm or larger (stress-induced ulcer; 45 mg/kg): 1.0; Number of Ulcers/Stomach, up to 3 mm (stress-induced ulcer; 45 mg/kg): 8.7; Percent Inhibition (stress-induced ulcer; 45 mg/kg): 67%; Ulcer Index (mean value ± standard deviation) (stress-induced ulcer; 67 mg/kg): 1.5 ± 2.7; Number of Ulcers/Stomach, 3 mm or larger (stress-induced ulcer; 67 mg/kg): 0.8; Number of Ulcers/Stomach, up to 3 mm (stress-induced ulcer; 67 mg/kg): 7.3; Percent Inhibition (stress-induced ulcer; 67 mg/kg): 75%; ulcer index in comparison with control (acetic acid ulcer; 10 mg/kg and 40 mg/kg): on a statistically significant lower level in comparison with those of the control; Percent healing Rate (acetic acid ulcer; 10 mg/kg): 45%; Ulcer Index (mean number ± standard deviation), product of major and minor axis (acetic acid ulcer; 10 mg/kg): 6.9 ± 5.6 mm^2; Percent healing Rate (acetic acid ulcer; 40 mg/kg): 42%; Ulcer Index (mean number ± standard deviation), product of major and minor axis (acetic acid ulcer; 40 mg/kg): 7.2 ± 5.1 mm^2
Cc1cccc(C(=O)Nc2ccc(C(=O)NCCCN(C)C)c(NC(=O)c3cccc(C)c3)c2)c1 [1-[N-(3'-dimethylaminopropyl)-carbamoyl]-2,4-bis(3"-methylbenzamido)-benzene]	–	–	–	–	–	–	–	–	–	–	0	0	2.5 ± 1.4	38	–	–	2.4 ± 2.1	0.6	17.6	61	inhibition of death of rats and formation of perforating ulcers (pylorus ligature ulcer; 200 mg/kg): completely inhibited the death of rats and the formation of perforating ulcers; prevention of formation of gastric ulcers (pylorus ligature ulcer; 200 mg/kg): prevented the formation of gastric ulcers on a statistically significant level; inhibition of the formation of ulcer (stress-induced ulcer; 100 mg/kg body weight): 50-60%
